According to patent US20110245496A1, “Quinazoline Salt Compounds” (priority 2007, published 2011):
Where “and” joins values, the source holds several entries; their conditions need not be identical. Equal values may be shown once.

Experiments:
[1] = Salt solubility measurement in water; settings: for solubility / Solubility as free base / Solubility as salt: water, stirred at ambient temperature 18-20 hours, filtered, hplc assay; for solubility: thermodynamic from solid; for pH of the remaining solution: remaining solution after solubility measurement in water
[2] = test system: breast (BT474) cell line; test: Methylene blue growth inhibition assay, BT474; format: cell-based; settings: Homo sapiens, BT-474, 72 h, BT474 cells, 3 days
Protocol: (§1) Human breast (BT474), head and neck (HN5) and gastric tumor (N87) cell lines and human foreskin Fibroblasts (HFF) were cultured in low glucose DMEM (Life Technologies 12320-032) containing 10% fetal bovine serum (FBS) at 37° C. in a humidified 10% CO2, 90% air incubator. The SV40 transformed human mammary epithelial cell line HB4a was transfected with either human H-ras cDNA (HB4a r4.2) or the human c-erbB2 cDNA (HB4a c5.2). The HB4a clones were cultured in RPMI containing 10% FBS, insulin ([…]), hydrocortisone ([…]), supplemented with the selection agent hygromycin B (50 μg/ml). Cells were harvested using trypsin/EDTA, counted using a haemocytometer, and plated in […] of the appropriate media, at the following densities, in a 96-well tissue culture plate (Falcon 3075): BT474 10,000 cells/well, HN5 3,000 cells/well, N87 10,000 cells/well, HB4a c5.2 3,000 cells/well, HB4a r4.2 3,000 cells/well, HFF 2500 cells/well. The next day, compounds were diluted in DMEM containing […] gentamicin, at twice the final required concentration, from 10 mM stock solutions in DMSO. […] of these dilutions were added to the […] of media currently on the cell plates. Medium containing 0.6% DMSO was added to control wells. […] Optical density at 620 nm was measured on a microplate reader. Percent inhibition of cell growth was calculated relative to vehicle treated control wells. […]

[3] = test system: gastric tumor (N87) cell line; test: Methylene blue growth inhibition assay, N87; format: cell-based; settings: Homo sapiens, 72 h, N87 cells, 3 days
Protocol: as §1

[4] = test system: head and neck (HN5) cell line; test: Methylene blue growth inhibition assay, HN5; format: cell-based; settings: Homo sapiens, 72 h, HN5 cells, 3 days
Protocol: as §1

`CS(=O)(=O)CCNCc1ccc(-c2ccc3ncnc(Nc4ccc(OCc5cccc(F)c5)c(Cl)c4)c3c2)o1.C[C@H](O)C(=O)O.C[C@H](O)C(=O)O` [Di-L-lactate, N-{3-Chloro-4-[(3-fluorobenzyl)oxy]phenyl}-6-[5-({[2-(methanesulphonyl)ethyl]amino}methyl)-2-furyl]-4-quinazolinamine di-L-lactate] gave a solubility ([1]; Solubility as free base) greater than 10300 µg/mL and a solubility ([1]; Solubility as salt) greater than 13500 µg/mL.
In the case of `CS(=O)(=O)CCNCc1ccc(-c2ccc3ncnc(Nc4ccc(OCc5cccc(F)c5)c(Cl)c4)c3c2)o1.O=C(O)c1ccccc1.O=C(O)c1ccccc1` [Dibenzoate, N-{3-Chloro-4-[(3-fluorobenzyl)oxy]phenyl}-6-[5-({[2-(methanesulphonyl)ethyl]amino}methyl)-2-furyl]-4-quinazolinamine dibenzoate], the solubility ([1]; Solubility as free base) is reported as 40 µg/mL and the solubility ([1]; Solubility as salt) is reported as 60 µg/mL.
With `CS(=O)(=O)CCNCc1ccc(-c2ccc3ncnc(Nc4ccc(OCc5cccc(F)c5)c(Cl)c4)c3c2)o1.O=S(=O)(O)c1ccccc1.O=S(=O)(O)c1ccccc1` [Dibesylate, N-{3-Chloro-4-[(3-fluorobenzyl)oxy]phenyl}-6-[5-({[2-(methanesulphonyl)ethyl]amino}methyl)-2-furyl]-4-quinazolinamine dibesylate] the “Solubility as free base” value [1] was “<LoD”.
`CCS(=O)(=O)O.CCS(=O)(=O)O.CS(=O)(=O)CCNCc1ccc(-c2ccc3ncnc(Nc4ccc(OCc5cccc(F)c5)c(Cl)c4)c3c2)o1` [Diesylate, N-{3-Chloro-4-[(3-fluorobenzyl)oxy]phenyl}-6-[5-({[2-(methanesulphonyl)ethyl]amino}methyl)-2-furyl]-4-quinazolinamine diesylate] showed a solubility ([1]; Solubility as free base) of roughly 19700 µg/mL and a solubility ([1]; Solubility as salt) of roughly 27200 µg/mL.
In the case of `CS(=O)(=O)CCNCc1ccc(-c2ccc3ncnc(Nc4ccc(OCc5cccc(F)c5)c(Cl)c4)c3c2)o1.O.O=C(O)/C=C\C(=O)O.O=C(O)/C=C\C(=O)O` [Dimaleate monohydrate, N-{3-Chloro-4-[(3-fluorobenzyl)oxy]phenyl}-6-[5-({[2-(methanesulphonyl)ethyl]amino}methyl)-2-furyl]-4-quinazolinamine dimaleate monohydrate], the solubility ([1]; Solubility as free base) is reported as 40 µg/mL and the solubility ([1]; Solubility as salt) is reported as 60 µg/mL.
In the case of `CS(=O)(=O)CCNCc1ccc(-c2ccc3ncnc(Nc4ccc(OCc5cccc(F)c5)c(Cl)c4)c3c2)o1.O=C(O)/C=C\C(=O)O.O=C(O)/C=C\C(=O)O` [Dimaleate, N-{3-Chloro-4-[(3-fluorobenzyl)oxy]phenyl}-6-[5-({[2-(methanesulphonyl)ethyl]amino}methyl)-2-furyl]-4-quinazolinamine dimaleate], the “Solubility as free base” value ([1]; dimaleate) is reported as 0.15 mg/mL and 0.14 mg/mL, the Solubility as salt ([1]; dimaleate) is reported as 0.20 mg/mL and 0.19 mg/mL and the solubility ([1]; Solubility as free base) is reported as 130 µg/mL. It also gave a solubility ([1]; Solubility as salt) of 180 µg/mL.
Work on `CS(=O)(=O)CCNCc1ccc(-c2ccc3ncnc(Nc4ccc(OCc5cccc(F)c5)c(Cl)c4)c3c2)o1.CS(=O)(=O)O.CS(=O)(=O)O.O.O` [Dimesylate dehydrate, N-{3-Chloro-4-[(3-fluorobenzyl)oxy]phenyl}-6-[5-({[2-(methanesulphonyl)ethyl]amino}methyl)-2-furyl]-4-quinazolinamine dimesylate dihydrate] yielded a solubility ([1]; Solubility as free base) of roughly 15300 µg/mL and a solubility ([1]; Solubility as salt) of roughly 21300 µg/mL.
For `CS(=O)(=O)CCNCc1ccc(-c2ccc3ncnc(Nc4ccc(OCc5cccc(F)c5)c(Cl)c4)c3c2)o1.CS(=O)(=O)O.CS(=O)(=O)O.O` [Dimesylate monohydrate, N-{3-Chloro-4-[(3-fluorobenzyl)oxy]phenyl}-6-[5-({[2-(methanesulphonyl)ethyl]amino}methyl)-2-furyl]-4-quinazolinamine dimesylate monohydrate], the “Solubility as free base” value ([1]; dimesylate monohydrate) was 1) ~4.70 mg/ml, the Solubility as salt ([1]; dimesylate monohydrate) was 1) 6.25 mg/ml and the solubility ([1]; Solubility as free base) was roughly 4360 µg/mL. For the same compound, the solubility ([1]; Solubility as salt) was 5800 µg/mL.
`CS(=O)(=O)CCNCc1ccc(-c2ccc3ncnc(Nc4ccc(OCc5cccc(F)c5)c(Cl)c4)c3c2)o1.CS(=O)(=O)O.CS(=O)(=O)O` [Dimesylate, N-{3-Chloro-4-[(3-fluorobenzyl)oxy]phenyl}-6-[5-({[2-(methanesulphonyl)ethyl]amino}methyl)-2-furyl]-4-quinazolinamine dimesylate] showed a solubility ([1]; Solubility as free base) greater than 7350 µg/mL and a solubility ([1]; Solubility as salt) greater than 10000 µg/mL.
Compound `CS(=O)(=O)CCNCc1ccc(-c2ccc3ncnc(Nc4ccc(OCc5cccc(F)c5)c(Cl)c4)c3c2)o1` [GW572016X, N-{3-Chloro-4-[(3-fluorobenzyl)oxy]phenyl}-6-[5-({[2-(methanesulphonyl)ethyl]amino}methyl)-2-furyl]-4-quinazolinamine] has an IC50 [2] of less than 5 µM, an IC50 [3] of less than 5 µM and an IC50 [4] of less than 5 µM.
Work on `CS(=O)(=O)CCNCc1ccc(-c2ccc3ncnc(Nc4ccc(OCc5cccc(F)c5)c(Cl)c4)c3c2)o1.O=C(O)C[C@H](O)C(=O)O` [Mono L-malate, N-{3-Chloro-4-[(3-fluorobenzyl)oxy]phenyl}-6-[5-({[2-(methanesulphonyl)ethyl]amino}methyl)-2-furyl]-4-quinazolinamine mono-L-malate] yielded a Solubility as salt ([1]; mono-L-malate) of 0.07 mg/mL, a solubility ([1]; Solubility as free base) of 50 µg/mL and a solubility ([1]; Solubility as salt) of 60 µg/mL.
With `CS(=O)(=O)CCNCc1ccc(-c2ccc3ncnc(Nc4ccc(OCc5cccc(F)c5)c(Cl)c4)c3c2)o1.C[C@H](O)C(=O)O` [Mono-L-lactate, N-{3-Chloro-4-[(3-fluorobenzyl)oxy]phenyl}-6-[5-({[2-(methanesulphonyl)ethyl]amino}methyl)-2-furyl]-4-quinazolinamine mono-L-lactate] the Solubility as salt [1] was 2) 7.9 mg/ml, the solubility ([1]; Solubility as free base) was roughly 7300 µg/mL and the solubility ([1]; Solubility as salt) was 8500 µg/mL.
In the case of `CS(=O)(=O)CCNCc1ccc(-c2ccc3ncnc(Nc4ccc(OCc5cccc(F)c5)c(Cl)c4)c3c2)o1.O=C(O)CC(O)(CC(=O)O)C(=O)O` [Monocitrate, N-{3-Chloro-4-[(3-fluorobenzyl)oxy]phenyl}-6-[5-({[2-(methanesulphonyl)ethyl]amino}methyl)-2-furyl]-4-quinazolinamine monocitrate], the solubility ([1]; Solubility as free base) is reported as 10 µg/mL and the solubility ([1]; Solubility as salt) is reported as 10 µg/mL.
For `CCS(=O)(=O)O.CS(=O)(=O)CCNCc1ccc(-c2ccc3ncnc(Nc4ccc(OCc5cccc(F)c5)c(Cl)c4)c3c2)o1` [Monoesylate, N-{3-Chloro-4-[(3-fluorobenzyl)oxy]phenyl}-6-[5-({[2-(methanesulphonyl)ethyl]amino}methyl)-2-furyl]-4-quinazolinamine monoesylate], the “Solubility as free base” value [1] was 0.53 mg/mL, the Solubility as salt [1] was 0.63 mg/mL and the solubility ([1]; Solubility as free base) was 520 µg/mL. The solubility ([1]; Solubility as salt) was 620 µg/mL.
In the case of `CS(=O)(=O)CCNCc1ccc(-c2ccc3ncnc(Nc4ccc(OCc5cccc(F)c5)c(Cl)c4)c3c2)o1.CS(=O)(=O)O` [Monomesylate, N-{3-Chloro-4-[(3-fluorobenzyl)oxy]phenyl}-6-[5-({[2-(methanesulphonyl)ethyl]amino}methyl)-2-furyl]-4-quinazolinamine monomesylate], the solubility ([1]; Solubility as free base) is reported as 330 µg/mL and the solubility ([1]; Solubility as salt) is reported as 390 µg/mL.
In the case of `CS(=O)(=O)CCNCc1ccc(-c2ccc3ncnc(Nc4ccc(OCc5cccc(F)c5)c(Cl)c4)c3c2)o1.O=C(O)CCC(=O)O` [Succinate, N-{3-Chloro-4-[(3-fluorobenzyl)oxy]phenyl}-6-[5-({[2-(methanesulphonyl)ethyl]amino}methyl)-2-furyl]-4-quinazolinamine monosuccinate], the “Solubility as free base” value [1] is reported as “<LoD” and the Solubility as salt [1] is reported as “<LoD”.
In the case of Lapatinib Di-L-Malate, the “pH of the remaining solution” value [1] is reported as 3.2, the “Solubility as free base” value [1] is reported as 0.91 mg/mL and the Solubility as salt [1] is reported as 1.33 mg/mL.
In the case of Lapatinib Difumarate, the “pH of the remaining solution” value [1] is reported as 3.0 and the “Solubility as free base” value [1] is reported as “<LoD”.
In the case of Lapatinib Monofumarate, the “pH of the remaining solution” value [1] is reported as 4.0 and the “Solubility as free base” value [1] is reported as “<LoD”.
